Laboratory results as given in ChEMBL document CHEMBL4130451, “Design and Synthesis of N-Aryl Phenoxyethoxy Pyridinones as Highly Selective and CNS Penetrant mGlu3 NAMs” (ACS Med Chem Lett, 2017).
Activity calls are given as the source filed them. The calls are words filed in the database; no cut-off is given here.

Columns and labels:
[1] = biological target: Metabotropic glutamate receptor 5 (Rattus norvegicus) (UniProt P31424); assay: Positive allosteric modulation of rat mGlu5 receptor expressed in HEK293A cells assessed as increase in glutamate induced-calcium mobilization by measuring maximum glutamate response preincubated for 2.3 mins followed by glutamate addition measured for 1.9 mins by Fluo-4 AM dye based fluorescence assay relative to glutamate; assay type: functional, cell-based
[2] = species: Rattus norvegicus; assay: Selectivity ratio of EC50 for positive allosteric modulation of rat mGlu5 receptor expressed in HEK293A cells to IC50 for negative allosteric modulation of rat mGlu3 receptor expressed in TREX cells coexpressing Galpha15; assay type: cell-based
[3] = biological target: Metabotropic glutamate receptor 3 (Rattus norvegicus) (UniProt P31422); assay: Negative allosteric modulation of rat mGlu3 receptor expressed in TREX cells coexpressing Galpha15 assessed as inhibition of glutamate induced-calcium mobilization by measuring minimum glutamate response preincubated for 2.3 mins followed by glutamate addition measured for 2.6 mins by Fluo-4 AM dye based fluorescence assay relative to glutamate; assay type: functional, cell-based
[4] = biological target: Metabotropic glutamate receptor 3 (Rattus norvegicus, UniProt P31422); assay: Negative allosteric modulation of rat mGlu3 receptor expressed in TREX cells coexpressing Galpha15 assessed as inhibition of glutamate induced-calcium mobilization preincubated for 2.3 mins followed by glutamate addition measured for 2.6 mins by Fluo-4 AM dye based fluorescence assay; assay type: functional, cell-based
[5] = Drug uptake in Harlan CD-1 mouse brain at 3 mg/kg, ip by LC/MS-MS analysis; assay type: ADME, organism-based; settings: in vivo, read-out: Drug uptake
[6] = test system: Mus musculus; assay: Antidepressant activity in CD-1 mouse assessed as reduction in immobility time up to 30 mg/kg administered ip 15 mins prior to test measured for 6 mins by tail suspension test; assay type: functional, organism-based
[7] = Ratio of drug uptake in Harlan CD-1 mouse brain at 3 mg/kg, ip to IC50 for negative allosteric modulation of rat mGlu2 receptor expressed in HEK293 cells coexpressing Galpha15; assay type: ADME, organism-based; settings: in vivo
[8] = Fraction unbound in rat plasma at 5 uM after 4 hrs by equilibrium dialysis based LC/MS/MS analysis; assay type: ADME, cell-free
[9] = biological target: Metabotropic glutamate receptor 2 (Rattus norvegicus, UniProt P31421); assay: Negative allosteric modulation of rat mGlu2 receptor expressed in HEK293 cells coexpressing Galpha15 assessed as inhibition of glutamate induced-calcium mobilization preincubated for 2.3 mins followed by glutamate addition measured for 1.9 mins by Fluo-4 AM dye based fluorescence assay; assay type: functional, cell-based
[10] = biological target: Metabotropic glutamate receptor 5 (Rattus norvegicus, UniProt P31424); assay: Positive allosteric modulation of rat mGlu5 receptor expressed in HEK293A cells assessed as increase in glutamate induced-calcium mobilization preincubated for 2.3 mins followed by glutamate addition measured for 1.9 mins by Fluo-4 AM dye based fluorescence assay; assay type: functional, cell-based
[11] = test system: Mus musculus; assay: Antidepressant activity in CD-1 mouse assessed as reduction in immobility time at 30 mg/kg administered ip 15 mins prior to test measured for 6 mins by tail suspension test; assay type: functional, organism-based
[12] = biological target: Cytochrome P450 1A2 (Homo sapiens, UniProt P05177); assay: Inhibition of CYP1A2 in human liver microsomes using phenacetin as substrate after 15 mins in presence of NADPH by LC/MS/MS analysis; assay type: ADME
[13] = Brain to plasma partition coefficient, Kp of the compound in rat; assay type: ADME
[14] = biological target: Cytochrome P450 3A4 (Homo sapiens, UniProt P08684); assay: Inhibition of CYP3A4 in human liver microsomes using midazolam as substrate after 15 mins in presence of NADPH by LC/MS/MS analysis; assay type: ADME
[15] = biological target: Cytochrome P450 2D6 (Homo sapiens, UniProt P10635); assay: Inhibition of CYP2D6 in human liver microsomes using dextromethorphan as substrate after 15 mins in presence of NADPH by LC/MS/MS analysis; assay type: ADME
[16] = Fraction unbound in human plasma at 5 uM after 4 hrs by equilibrium dialysis based LC/MS/MS analysis; assay type: ADME, cell-free
[17] = Unbound brain-to-plasma concentration ratio in rat; assay type: ADME; settings: read-out: K(p,uu,brain)
[18] = biological target: Cytochrome P450 2C9 (Homo sapiens, UniProt P11712); assay: Inhibition of CYP2C9 in human liver microsomes using diclofenac as substrate after 15 mins in presence of NADPH by LC/MS/MS analysis; assay type: ADME
[19] = Fraction unbound in rat brain homogenate at 5 uM after 6 hrs by equilibrium dialysis based LC/MS/MS analysis; assay type: ADME, tissue-based

Metabotropic glutamate receptor 5, sequence (P31424 whole entry): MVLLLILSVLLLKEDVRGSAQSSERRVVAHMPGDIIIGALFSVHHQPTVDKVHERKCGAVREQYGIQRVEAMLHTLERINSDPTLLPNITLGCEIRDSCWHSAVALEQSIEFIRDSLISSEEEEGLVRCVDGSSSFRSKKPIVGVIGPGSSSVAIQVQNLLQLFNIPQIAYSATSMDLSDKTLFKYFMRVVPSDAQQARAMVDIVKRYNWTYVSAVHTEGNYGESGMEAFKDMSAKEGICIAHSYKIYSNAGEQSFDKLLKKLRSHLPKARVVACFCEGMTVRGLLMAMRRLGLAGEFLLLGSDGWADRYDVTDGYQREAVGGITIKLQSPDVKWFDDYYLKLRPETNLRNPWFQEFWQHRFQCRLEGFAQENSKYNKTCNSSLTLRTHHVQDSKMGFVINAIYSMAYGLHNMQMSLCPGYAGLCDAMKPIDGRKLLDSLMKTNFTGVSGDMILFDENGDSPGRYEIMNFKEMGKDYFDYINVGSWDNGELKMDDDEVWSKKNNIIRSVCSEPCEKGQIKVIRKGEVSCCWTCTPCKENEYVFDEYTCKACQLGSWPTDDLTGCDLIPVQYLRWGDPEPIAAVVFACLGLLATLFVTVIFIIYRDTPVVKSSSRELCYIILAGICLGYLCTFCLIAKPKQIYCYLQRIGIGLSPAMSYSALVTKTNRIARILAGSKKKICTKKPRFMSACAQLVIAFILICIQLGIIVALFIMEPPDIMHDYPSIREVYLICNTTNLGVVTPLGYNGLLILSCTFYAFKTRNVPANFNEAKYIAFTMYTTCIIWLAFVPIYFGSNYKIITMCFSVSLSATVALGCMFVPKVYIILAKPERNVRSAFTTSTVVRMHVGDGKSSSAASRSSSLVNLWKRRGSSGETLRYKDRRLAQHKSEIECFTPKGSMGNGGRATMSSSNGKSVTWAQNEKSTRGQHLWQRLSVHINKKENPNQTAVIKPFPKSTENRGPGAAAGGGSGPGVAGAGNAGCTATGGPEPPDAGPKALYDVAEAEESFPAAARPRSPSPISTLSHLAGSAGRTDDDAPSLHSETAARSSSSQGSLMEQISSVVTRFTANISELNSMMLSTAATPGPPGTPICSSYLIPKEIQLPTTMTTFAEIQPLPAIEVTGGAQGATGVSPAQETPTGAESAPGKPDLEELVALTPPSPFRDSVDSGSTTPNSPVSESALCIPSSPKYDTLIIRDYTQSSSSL
Metabotropic glutamate receptor 3, sequence (P31422 whole entry): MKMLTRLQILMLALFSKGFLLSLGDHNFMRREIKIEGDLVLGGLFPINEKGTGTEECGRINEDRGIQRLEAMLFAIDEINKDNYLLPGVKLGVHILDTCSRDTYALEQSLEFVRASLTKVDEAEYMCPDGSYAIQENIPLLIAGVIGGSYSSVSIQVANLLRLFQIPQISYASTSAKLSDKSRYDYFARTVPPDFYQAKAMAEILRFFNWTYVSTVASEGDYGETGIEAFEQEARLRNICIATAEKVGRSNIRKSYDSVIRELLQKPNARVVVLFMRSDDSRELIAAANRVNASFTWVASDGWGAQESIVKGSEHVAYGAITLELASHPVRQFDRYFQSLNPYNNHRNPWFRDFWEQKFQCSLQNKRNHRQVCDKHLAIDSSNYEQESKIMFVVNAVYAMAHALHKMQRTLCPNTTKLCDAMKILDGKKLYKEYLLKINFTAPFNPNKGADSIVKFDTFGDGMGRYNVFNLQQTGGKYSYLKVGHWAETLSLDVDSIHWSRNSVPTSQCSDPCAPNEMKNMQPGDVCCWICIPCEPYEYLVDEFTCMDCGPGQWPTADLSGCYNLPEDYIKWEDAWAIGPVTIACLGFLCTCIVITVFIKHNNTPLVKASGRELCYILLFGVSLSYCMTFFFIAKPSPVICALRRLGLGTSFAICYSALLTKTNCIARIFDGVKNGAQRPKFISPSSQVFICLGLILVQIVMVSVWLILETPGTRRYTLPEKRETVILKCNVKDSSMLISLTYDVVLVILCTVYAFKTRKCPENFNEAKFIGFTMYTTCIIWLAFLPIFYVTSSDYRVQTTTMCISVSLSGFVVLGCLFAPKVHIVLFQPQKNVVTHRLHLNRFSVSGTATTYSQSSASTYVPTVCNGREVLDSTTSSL
Metabotropic glutamate receptor 5 (Rattus norvegicus), sequence (P31424 21-1203 limits assumed): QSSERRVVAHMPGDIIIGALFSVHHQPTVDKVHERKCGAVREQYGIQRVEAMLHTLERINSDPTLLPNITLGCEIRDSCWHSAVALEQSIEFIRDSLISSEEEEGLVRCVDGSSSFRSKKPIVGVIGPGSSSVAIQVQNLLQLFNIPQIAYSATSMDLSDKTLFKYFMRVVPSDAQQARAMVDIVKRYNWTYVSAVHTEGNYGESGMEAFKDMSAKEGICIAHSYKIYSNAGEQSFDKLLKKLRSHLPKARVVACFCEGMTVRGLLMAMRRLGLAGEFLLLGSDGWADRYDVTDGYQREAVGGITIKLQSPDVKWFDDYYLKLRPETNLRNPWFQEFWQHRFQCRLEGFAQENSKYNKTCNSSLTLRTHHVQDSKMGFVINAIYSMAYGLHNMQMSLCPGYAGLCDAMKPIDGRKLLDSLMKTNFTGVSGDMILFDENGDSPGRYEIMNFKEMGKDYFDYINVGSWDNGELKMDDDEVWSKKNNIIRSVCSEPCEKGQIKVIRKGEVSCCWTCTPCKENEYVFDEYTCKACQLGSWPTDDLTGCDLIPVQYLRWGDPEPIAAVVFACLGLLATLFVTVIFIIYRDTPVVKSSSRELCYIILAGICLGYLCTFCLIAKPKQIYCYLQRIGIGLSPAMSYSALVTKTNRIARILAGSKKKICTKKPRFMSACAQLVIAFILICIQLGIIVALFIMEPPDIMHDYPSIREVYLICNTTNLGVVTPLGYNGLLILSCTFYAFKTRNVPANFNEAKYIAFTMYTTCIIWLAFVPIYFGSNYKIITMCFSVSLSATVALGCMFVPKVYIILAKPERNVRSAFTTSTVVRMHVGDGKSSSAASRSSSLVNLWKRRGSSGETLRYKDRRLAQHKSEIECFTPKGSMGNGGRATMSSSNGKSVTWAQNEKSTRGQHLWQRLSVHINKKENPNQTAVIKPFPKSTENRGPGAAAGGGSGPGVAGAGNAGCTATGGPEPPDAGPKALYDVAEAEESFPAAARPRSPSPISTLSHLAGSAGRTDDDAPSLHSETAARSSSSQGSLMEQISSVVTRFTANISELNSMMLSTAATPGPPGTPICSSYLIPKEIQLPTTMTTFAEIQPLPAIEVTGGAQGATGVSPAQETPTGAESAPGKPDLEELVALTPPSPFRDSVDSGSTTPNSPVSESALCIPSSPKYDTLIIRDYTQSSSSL
Metabotropic glutamate receptor 3 (Rattus norvegicus), sequence (P31422 23-879 limits assumed): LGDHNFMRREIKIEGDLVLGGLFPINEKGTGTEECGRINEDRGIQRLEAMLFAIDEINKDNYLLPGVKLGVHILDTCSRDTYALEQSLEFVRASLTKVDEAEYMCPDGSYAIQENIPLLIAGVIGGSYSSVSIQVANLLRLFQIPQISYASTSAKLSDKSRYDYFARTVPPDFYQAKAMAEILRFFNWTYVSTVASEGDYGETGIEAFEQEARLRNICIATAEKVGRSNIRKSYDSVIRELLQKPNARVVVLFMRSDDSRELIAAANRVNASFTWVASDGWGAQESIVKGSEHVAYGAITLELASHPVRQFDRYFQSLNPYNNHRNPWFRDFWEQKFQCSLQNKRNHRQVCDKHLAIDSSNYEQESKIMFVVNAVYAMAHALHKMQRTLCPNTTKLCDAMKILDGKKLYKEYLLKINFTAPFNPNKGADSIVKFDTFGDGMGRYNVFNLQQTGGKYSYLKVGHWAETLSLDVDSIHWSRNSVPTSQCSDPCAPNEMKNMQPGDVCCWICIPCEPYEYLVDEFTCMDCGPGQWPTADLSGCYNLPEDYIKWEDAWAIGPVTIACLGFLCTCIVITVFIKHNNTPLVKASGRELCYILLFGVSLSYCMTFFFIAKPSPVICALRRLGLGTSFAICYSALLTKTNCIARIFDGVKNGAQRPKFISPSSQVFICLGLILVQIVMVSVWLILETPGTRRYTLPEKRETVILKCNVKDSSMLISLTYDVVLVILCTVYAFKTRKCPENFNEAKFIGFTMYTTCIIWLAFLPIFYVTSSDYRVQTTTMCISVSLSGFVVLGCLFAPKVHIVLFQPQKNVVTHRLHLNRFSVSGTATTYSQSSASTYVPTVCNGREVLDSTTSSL
Metabotropic glutamate receptor 2, sequence (P31421 whole entry, looked up): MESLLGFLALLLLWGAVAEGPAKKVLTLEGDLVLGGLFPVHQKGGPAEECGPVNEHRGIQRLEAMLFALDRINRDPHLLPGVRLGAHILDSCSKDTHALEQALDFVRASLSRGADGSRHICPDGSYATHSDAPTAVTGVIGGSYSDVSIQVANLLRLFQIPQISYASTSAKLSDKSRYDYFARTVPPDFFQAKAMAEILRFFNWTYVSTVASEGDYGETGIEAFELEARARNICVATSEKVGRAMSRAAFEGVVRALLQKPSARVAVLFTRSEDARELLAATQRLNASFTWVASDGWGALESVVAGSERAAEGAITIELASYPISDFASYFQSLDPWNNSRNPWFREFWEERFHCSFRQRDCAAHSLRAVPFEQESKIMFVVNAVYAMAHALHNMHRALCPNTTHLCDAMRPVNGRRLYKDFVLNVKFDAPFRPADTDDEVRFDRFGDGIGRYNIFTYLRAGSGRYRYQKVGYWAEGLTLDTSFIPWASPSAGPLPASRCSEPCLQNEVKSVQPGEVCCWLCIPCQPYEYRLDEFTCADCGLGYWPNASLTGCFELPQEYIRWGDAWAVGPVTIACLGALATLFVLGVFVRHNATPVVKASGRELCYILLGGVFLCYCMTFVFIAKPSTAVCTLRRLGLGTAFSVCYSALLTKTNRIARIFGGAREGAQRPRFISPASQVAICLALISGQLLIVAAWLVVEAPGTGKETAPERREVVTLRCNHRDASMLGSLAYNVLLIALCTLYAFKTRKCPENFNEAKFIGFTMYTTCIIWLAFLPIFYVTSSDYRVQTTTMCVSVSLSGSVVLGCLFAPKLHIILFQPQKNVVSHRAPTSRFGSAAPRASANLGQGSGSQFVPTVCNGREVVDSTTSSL

**Q.** Which results are given for `N#Cc1cccc(-n2ccc(OCCOc3ccccc3)cc2=O)c1`?
**A.** Emax [1]: 87%; Selectivity ratio [2]: 18; Emin [3]: 3.63%; IC50 [4]: 340 nM

**Q.** What does the source list for `Cn1ccc(COc2cnc(C(N)=O)cc2-c2ccc(F)cc2)n1`?
**A.** concentration [5]: 14 µM; Activity [6]: inactive; Ratio [7]: 180

**Q.** For `O=c1nc(OCCOc2ccccc2)ccn1-c1ccc(F)c(F)c1`, which Emax [1] is on record?
**A.** 83%

**Q.** What about the Emin [3] of the same molecule?
**A.** 3.77%

**Q.** And the IC50 [4]?
**A.** 1020 nM

**Q.** For `O=c1nc(OCCOc2ccccc2)ccn1-c1ccc(F)cc1`, which Emax [1] is on record?
**A.** 97%

**Q.** What about the fraction unbound at 4 h, 5 µM [8] of the same molecule?
**A.** 0.16

**Q.** And the IC50 [9]?
**A.** > 30000 nM

**Q.** What about the Emin [3] of the same molecule?
**A.** 3.94%

**Q.** And the IC50 [4]?
**A.** 290 nM

**Q.** With `O=c1cc(OCCOc2cc(Cl)ccn2)ccn1-c1ccc(F)cc1` as the molecule, how does the Emax [1] read?
**A.** 82%

**Q.** And the Emin [3]?
**A.** 3.77%

**Q.** What about the IC50 [4] of the same molecule?
**A.** 1450 nM

**Q.** Which results are given for `C[C@H](COc1ccn(-c2ccc(F)cc2)c(=O)c1)Oc1ccccc1`?
**A.** IC50 [9]: > 30000 nM; IC50 [4]: > 30000 nM

**Q.** Which Emax [1] does the source give for `O=c1cc(OCCOc2ccccc2)ccn1-c1cccc(F)c1` here?
**A.** 88%

**Q.** And the Emin [3]?
**A.** 3.45%

**Q.** What about the IC50 [4] of the same molecule?
**A.** 390 nM

**Q.** What about the EC50 [10] of the same molecule?
**A.** 1900 nM

**Q.** With `O=c1nc(OCCOc2ccccc2)ccn1-c1cccc(F)c1` as the molecule, how does the Emax [1] read?
**A.** 77%

**Q.** What about the Emin [3] of the same molecule?
**A.** 15.5%

**Q.** What about the IC50 [4] of the same molecule?
**A.** > 10000 nM

**Q.** Which Activity [11] does the source give for `CNC1(c2ccccc2Cl)CCCCC1=O` (stereo not drawn) here?
**A.** Active

**Q.** For `CC(COc1ccn(-c2ccc(F)cc2)c(=O)c1)Oc1ccccc1` (stereo not drawn), which IC50 [12] is on record?
**A.** > 30000 nM

**Q.** What about the fraction unbound at 4 h, 5 µM [8] of the same molecule?
**A.** 0.04

**Q.** What about the Kp [13] of the same molecule?
**A.** 1.7

**Q.** What about the IC50 [14] of the same molecule?
**A.** > 30000 nM

**Q.** What about the IC50 [15] of the same molecule?
**A.** > 30000 nM

**Q.** And the fraction unbound at 4 h, 5 µM [16]?
**A.** 0.1

**Q.** And the Emin [3]?
**A.** 3.57%

**Q.** What about the IC50 [4] of the same molecule?
**A.** 1230 nM

**Q.** And the Kp uu [17]?
**A.** 1.3

**Q.** And the IC50 [18]?
**A.** > 30000 nM

**Q.** And the EC50 [10]?
**A.** > 30000 nM

**Q.** What about the fraction unbound at 6 h, 5 µM [19] of the same molecule?
**A.** 0.05

**Q.** Which results are given for `O=c1cc(OCCOc2ccccc2)ccn1-c1ccc(F)c(F)c1`?
**A.** Emax [1]: 91%; Emin [3]: 3.53%; IC50 [4]: 180 nM; EC50 [10]: 340 nM

**Q.** Which results are given for `O=c1cc(OCCOc2ncccc2Cl)ccn1-c1ccc(F)cc1`?
**A.** Emax [1]: 94%; Emin [3]: 3.62%; IC50 [4]: 450 nM

**Q.** What does the source list for `O=c1cc(OCCOc2cccc(F)c2)ccn1-c1ccc(F)cc1`?
**A.** Emax [1]: 93%; Emin [3]: 3.56%; IC50 [4]: 350 nM; EC50 [10]: 1500 nM

**Q.** Which Emax [1] does the source give for `O=c1cc(OCCOc2ccccc2)ccn1-c1ccc(F)cc1` here?
**A.** 97%

**Q.** And the Emin [3]?
**A.** 2.69%

**Q.** What about the IC50 [4] of the same molecule?
**A.** 930 nM

**Q.** What about the EC50 [10] of the same molecule?
**A.** 560 nM

**Q.** For `N#Cc1cc(F)cc(-n2ccc(OCCOc3ccccc3)cc2=O)c1`, which Emax [1] is on record?
**A.** 27%

**Q.** And the Emin [3]?
**A.** 3.39%

**Q.** And the IC50 [4]?
**A.** 270 nM
